Experimental data as given in patent US20210121426A1, “BLOOD PURIFICATION BY ALKALINIZING AGENT” (TOHOKU UNIVERSITY, priority 2017, published 2021).
Marks after values point to notes of the source that are not given here.

Tests used:
[1] = Human clinical trial: urinary specific gravity of early morning urine (urine hydrometer); assay type: in vivo
Experimental: (§1) 1. […] Patients were assigned to each group so that age, sex, presence of diabetes, and eGFR were not biased. Each group was treated according to the “CKD medical care guide-summary of treatment” (hereinafter referred to as standard treatment).
(§2) An alkalinizing agent was not administered to the control group. […] A pH of early morning urine was controlled over time so that the dosage could be increased up to 6 tablets, 3 times a day (morning, noon, evening) as needed according to the discretion of the physician in cases where a pH of early morning urine was less than pH 6.5. To the group B, 3 tablets a day in which each tablet contained 500 mg of sodium bicarbonate were orally administered 3 times a day (morning, noon, evening) for 24 weeks. A pH of early morning urine was controlled over time so that the dosage could be increased up to 6 tablets, 3 times a day (morning, noon, evening) as needed according to the discretion of the physician in cases where a pH of early morning urine was less than pH 6.5.
In addition, amounts of change in each urinary specific gravity after 6, 12, and 24 weeks after the start of the test are respectively shown as a % relative value with respect to each urinary specific gravity before the start of the test, and a difference from urinary specific gravity before the start of the teste in Tables 11-0-2 and 11-0-3. The urinary specific gravity was measured using a urine hydrometer (PAL-09S, Atago Co., Ltd., Tokyo, Japan).

p-cresyl sulfate = experiment: Urine p-cresyl sulfate (PCS) corrected by urinary specific gravity; assay type: in vivo, human
From the text: Medical Examination, Vol. 44, No. 1, 1995, pages 79-83 by Tetsuo Aoki et al. was referred to. A urinary specific gravity 1.022 was converted into a reference value.
Specific gravity correction value (unit/1.022·UG)=actual measurement value×(1.022−1.000)/(specific gravity value−1.000)

indoxyl sulfate = experiment: Urine indoxyl sulfate (IS) corrected by urine osmotic pressure; assay type: in vivo, human
From the text: Medical Examination, Vol. 44, No. 1, 1995, pages 79-83 by Tetsuo Aoki et al. was referred to. In addition, a urine osmotic pressure 770 mOsm/kg was converted into a reference value.
Osmotic pressure correction value (unit/500 mOsm·P)=actual measurement value×500/osmotic pressure value

cystatin C = experiment: Human clinical trial: cystatin C (colloidal gold agglutination method); assay type: in vivo
Experimental: as §1, §2
(§3) Early morning urine and blood were collected before the start of administration, and 6 weeks, 12 weeks, and 24 weeks after the start of administration, and each specimen was stored at −80° C. Methods used in the present field for indoxyl sulfate, p-cresyl sulfate, phenylacetyl-L-glutamine, hippuric acid, and argininosuccinic acid in urine and blood (Sato, E., et. al., Metabolic alteration by indoxyl sulfate in skeletal muscle induce uremic sarcopenia in chronic kidney disease., Sci Rep. 2016 Nov. 10; 6:36618. doi: 10.1038/srep36618, and the like) were referred to, and quantitative analysis was performed using the following liquid chromatography triple quadrupole mass spectrometer (LC-MS/MS).
In addition, the amount of urinary β2-microglobulin was measured by latex agglutination method using the LZ test “Eiken” β2-M and LZ-β2-M standard U “Eiken” (Eiken Chemical Co., Tokyo, Japan). Furthermore, the amount of cystatin C in the serum was measured by a colloidal gold agglutination method using Nescoat GC Cystatin C (Nm) (Alfresa Pharma, Osaka, Japan).
(§4) For statistical analysis, the Mann-Whitney test was used for comparison between groups, and the Wilcoxon test was used for comparison of changes over time. The Pearson test was used for correlation.

argininosuccinic acid = experiment: Human clinical trial in CKD patients: argininosuccinic acid in plasma and early morning urine (LC-MS/MS); assay type: in vivo; set-up: key to Influence on concentration of ASA / Influence on ASA U/P ratio: Excellent effects: ◯; Poor effects: X; No significant difference: —; (◯): whether or not there is an effect of promoting excretion of indoxyl sulfate into the urine cannot be determined
Experimental: as §1, §2, §3
For LC, NANOSPACE SI-2 (manufactured by Shiseido) was used, and […] MGM was selected as the analytical column.
For MS, TSQ Quantiva (manufactured by Thermo Fisher Scientific Co., Ltd.) was used, and five compounds were ionized in the negative mode and detected using the Selected Reaction Monitoring method. The quantitative value was calculated using a calibration curve prepared with a standard solution of each compound.
as §4
Then, the average value and SD of each group were calculated for (i) to (ix) above. For each of (iv) to (ix) above, the average value and SD of each group were calculated for all data of 6 weeks, 12 weeks, and 24 weeks after the start of administration in each group.

[2] = 0 W, before the start of administration
[3] = 6-24 W, all data of 6, 12 and 24 weeks

SMILES: O=C([O-])O.[Na+] [Bicarbonate, sodium bicarbonate]
- Urine Specific Gravity ([1]; 0 W, before the start of the test): 1.014 ± 0.007
- Urine Specific Gravity ([1]; 6-24 W, all data): 1.014 ± 0.006
- Urine Specific Gravity (% Relative value vs week 0) ([1]; 6-24 W, all data): 100.00 ± 0.67%
- Urine Specific Gravity, difference vs week 0 ([1]; 6-24 W, all data): 0.0002 ± 0.0058^b
- Urine Specific Gravity ([1]; 6 W): 1.014 ± 0.006
- Urine Specific Gravity (% Relative value vs week 0) ([1]; 6 W): 100.02 ± 0.53%
- Urine Specific Gravity, difference vs week 0 ([1]; 6 W): 0.0002 ± 0.0054
- Urine Specific Gravity ([1]; 12 W): 1.013 ± 0.005
- Urine Specific Gravity (% Relative value vs week 0) ([1]; 12 W): 99.89 ± 0.58^e %
- Urine Specific Gravity, difference vs week 0 ([1]; 12 W): −0.0012 ± 0.0058^e
- Urine Specific Gravity ([1]; 24 W): 1.016 ± 0.007
- Urine Specific Gravity (% Relative value vs week 0) ([1]; 24 W): 100.17 ± 0.61%
- Urine Specific Gravity, difference vs week 0 ([1]; 24 W): 0.0017 ± 0.0062
- urinary specific gravity value ([1]; over 6, 12 and 24 weeks, compared with the control group): maintained or increased
- Urine PCS, specific gravity corrected (p-cresyl sulfate; 0 W): 113.0 ± 119.5 μg · mL^−1/1.022 · UG
- Urine PCS, specific gravity corrected (p-cresyl sulfate; 6-24 W, all data): 83.2 ± 93.2 μg · mL^−1/1.022 · UG
- Urine PCS, specific gravity corrected, % Relative value vs week 0 (p-cresyl sulfate; 6-24 W, all data): 151 ± 323^b,e %
- Urine PCS, specific gravity corrected, difference vs week 0 (p-cresyl sulfate; 6-24 W, all data): −29.8 ± 66.1^b,d μg · mL^−1/1.022 · UG
- Urine PCS, specific gravity corrected (p-cresyl sulfate; 6 W): 98.1 ± 118.3 μg · mL^−1/1.022 · UG
- Urine PCS, specific gravity corrected, % Relative value vs week 0 (p-cresyl sulfate; 6 W): 83 ± 34^d,g %
- Urine PCS, specific gravity corrected (p-cresyl sulfate; 12 W): 66.7 ± 73.0 μg · mL^−1/1.022 · UG
- Urine PCS, specific gravity corrected, % Relative value vs week 0 (p-cresyl sulfate; 12 W): 105 ± 112%
- Urine PCS, specific gravity corrected, difference vs week 0 (p-cresyl sulfate; 12 W): −46.3 ± 68.4^d,g μg · mL^−1/1.022 · UG
- Urine PCS, specific gravity corrected (p-cresyl sulfate; 24 W): 84.8 ± 86.0 μg · mL^−1/1.022 · UG
- Urine PCS, specific gravity corrected, % Relative value vs week 0 (p-cresyl sulfate; 24 W): 265 ± 540%
- Urine PCS, specific gravity corrected, difference vs week 0 (p-cresyl sulfate; 24 W): −28.3 ± 84.4^ μg · mL^−1/1.022 · UG
- Urine IS, osmotic pressure corrected (indoxyl sulfate; 0 W): 87.9 ± 40.0 μg · mL^−1/770 mOsm · P
- Urine IS, osmotic pressure corrected (indoxyl sulfate; 6-24 W, all data): 77.0 ± 42.5 μg · mL^−1/770 mOsm · P
- Urine IS, osmotic pressure corrected, % Relative value vs week 0 (indoxyl sulfate; 6-24 W, all data): 93 ± 49%
- Urine IS, osmotic pressure corrected (indoxyl sulfate; 6 W): 82.9 ± 44.6 μg · mL^−1/770 mOsm · P
- Urine IS, osmotic pressure corrected, % Relative value vs week 0 (indoxyl sulfate; 6 W): 98 ± 30%
- Urine IS, osmotic pressure corrected, % Relative value vs week 0 (indoxyl sulfate; 12 W): 77 ± 39%
- Urine IS, osmotic pressure corrected (indoxyl sulfate; 24 W): 84.4 ± 48.4 μg · mL^−1/770 mOsm · P
- Urine IS, osmotic pressure corrected, % Relative value vs week 0 (indoxyl sulfate; 24 W): 104 ± 68%
- Plasma Cystatine C (cystatin C; [2]): 1.165 ± 0.296 mg/L
- Plasma Cystatine C (cystatin C; [3]): 1.154 ± 0.278 mg/L
- Plasma Cystatine C (cystatin C; 6 W): 1.171 ± 0.281 mg/L
- Plasma Cystatine C (cystatin C; 12 W): 1.151 ± 0.295 mg/L
- Plasma Cystatine C (cystatin C; 24 W): 1.141 ± 0.275 mg/L
- influence on the function of glomeruli (cystatin C; from cystatin C, Table 8): no influence
- Arginino Succinic Acid-Urine/Plasma ratio (argininosuccinic acid; [2]): 3.82 ± 4.93
- Plasma Arginino Succinic Acid (argininosuccinic acid; [2]): 1178 ± 655 ng/mL
- Urine Arginino Succinic Acid (early morning urine) (argininosuccinic acid; [2]): 2911 ± 1691 ng/mL
- ASA - Urine/Plasma ratio, change from week 0 (argininosuccinic acid; [3]): 1.15 ± 7.87
- Arginino Succinic Acid-Urine/Plasma ratio (argininosuccinic acid; [3]): 4.97 ± 7.98
- Plasma Arginino Succinic Acid (argininosuccinic acid; [3]): 1327 ± 1416 ng/mL
- Plasma Arginino Succinic Acid, change from week 0 (argininosuccinic acid; [3]): 148.9 ± 1134 ng/mL
- Urine Arginino Succinic Acid (early morning urine) (argininosuccinic acid; [3]): 3071 ± 2386 ng/mL
- Urine Arginino Succinic Acid, change from week 0 (argininosuccinic acid; [3]): 160.2 ± 1756 ng/mL
- ASA - Urine/Plasma ratio, change from week 0 (argininosuccinic acid; 6 W): 1.93 ± 7.90
- Arginino Succinic Acid-Urine/Plasma ratio (argininosuccinic acid; 6 W): 5.75 ± 9.80
- Plasma Arginino Succinic Acid (argininosuccinic acid; 6 W): 1245 ± 748 ng/mL
- Plasma Arginino Succinic Acid, change from week 0 (argininosuccinic acid; 6 W): 66.5 ± 565.5 ng/mL
- Urine Arginino Succinic Acid (early morning urine) (argininosuccinic acid; 6 W): 3346 ± 2636 ng/mL
- Urine Arginino Succinic Acid, change from week 0 (argininosuccinic acid; 6 W): 434.7 ± 1299 ng/mL
- effect of excretion of argininosuccinic acid from blood into urine (argininosuccinic acid; 6 to 24 weeks, urine/plasma ratio): more strongly recognized
- ASA - Urine/Plasma ratio, change from week 0 (argininosuccinic acid; 12 W): −1.01 ± 4.47
- Arginino Succinic Acid-Urine/Plasma ratio (argininosuccinic acid; 12 W): 2.81 ± 1.86
- Plasma Arginino Succinic Acid (argininosuccinic acid; 12 W): 1576 ± 2160 ng/mL
- Plasma Arginino Succinic Acid, change from week 0 (argininosuccinic acid; 12 W): 397.7 ± 1733 ng/mL
- Urine Arginino Succinic Acid (early morning urine) (argininosuccinic acid; 12 W): 2647 ± 2123 ng/mL
- Urine Arginino Succinic Acid, change from week 0 (argininosuccinic acid; 12 W): -264.1 ± 1491 ng/mL
- ASA - Urine/Plasma ratio, change from week 0 (argininosuccinic acid; 24 W): 2.54 ± 10.20^a
- Arginino Succinic Acid-Urine/Plasma ratio (argininosuccinic acid; 24 W): 6.36 ± 9.60
- Plasma Arginino Succinic Acid (argininosuccinic acid; 24 W): 1160 ± 977 ng/mL
- Plasma Arginino Succinic Acid, change from week 0 (argininosuccinic acid; 24 W): -17.6 ± 776.9 ng/mL
- Urine Arginino Succinic Acid (early morning urine) (argininosuccinic acid; 24 W): 3221 ± 2466 ng/mL
- Urine Arginino Succinic Acid, change from week 0 (argininosuccinic acid; 24 W): 309.9 ± 2335 ng/mL
- Influence on concentration of ASA (argininosuccinic acid; Plasma, comparison with Cont): —
- Influence on concentration of ASA (argininosuccinic acid; Plasma, comparison with reference drug): —
- Influence on ASA U/P ratio (argininosuccinic acid; comparison with Cont): —
- Influence on ASA U/P ratio (argininosuccinic acid; comparison with reference drug): —
- Influence on concentration of ASA (argininosuccinic acid; Urine, comparison with Cont): —
- Influence on concentration of ASA (argininosuccinic acid; Urine, comparison with reference drug): —
